Results taken from US5804576A, “Derivatives of 5-androsten-17-ones and 5-androstan-17-ones” (Research Corporation Technologies, Inc., priority 1986, dated 1998).
Values joined by “and” are separate entries in the source; they are usually repeats but may differ in a detail not shown here. Equal values may be shown once. “Also recorded” adds a separate entry of the source.

What was measured:
[1] = test system: (3H) DMBA binding to skin DNA; test: [3H]DMBA binding to mouse skin DNA, topical steroid; assay type: in vivo, mouse (A/J)
Description: Skin tumors can be induced in the mouse either by weekly application of a carcinogen such as […] (DMBA), or alternatively,by a single sub-threshold dose of the carcinogen followed by twice weekly applications of the tumor promoter tetradecanoylphorbol-13-acetate (TPA). In order to exert its carcinogenic effect, DMBA must be metabolized by an NADPH-dependent mixed-function oxidase to chemically reactive intermediates which bind covalently to DNA and produce mutations leading to malignant transformation. […] This effect of DHEA very probably is a result of the inhibition of G6PDH and lowering of the intracellular pool of NADPH, which is a co-factor for the mixed-function oxidase activation of DMBA.
Binding of [^3 H]DMBA to mouse skin DNA was determined as described in Pashko, L. L., and Schwartz, A. G. (1983), Effect of food restriction, dehydroepiandrosterone, or obesity on the binding of ^3 H-7,12-dimethylbenz(a)-anthracene to mouse skin DNA, J. Gerontol., 38, 8-12. Values are mean±SD for 3 individual determinations, with pooled tissue from 2 mice used for each determination. DHEA or testosterone (400 ug in 0.2 ml acetone) was applied to the skin one hour before [^3 H]DMBA. The mean weight of the food restricted mice was 18.5±1.0 gm, n=6, of the ad libitum fed, 27.4±1.0 gm, n=6, of the ad libitum fed treated with DHEA, 28.2±0.9 gm, n=6, and of the ad libitum fed treated with testosterone, 28.3±0.9 gm, n=6, following two weeks of feeding. The average food consumed was, in gm/mouse/day, 2.2, 3.8, 3.8 and 4.0 for the food restricted, ad libitum fed, ad libitum fed plus DHEA, and ad libitum fed plus testosterone groups, respectively.

[2] = test system: [3H]DMBA binding to skin DNA; test: [3H]DMBA binding to skin DNA, oral steroid; assay type: in vivo, mouse (male A/J)
Method: (§1) Male A/J mice were orally intubated with steroid suspended in sesame oil (0.5 ml/mouse) at the indicated dose. Mice not receiving steroid were given sesame oil alone. Food restricted mice received approximately 60% of food of Ad libitum fed for two weeks. One hour after oral intubation, topical [^3 H]DMBA was applied to the skin, and the amount bound to DNA was determined 12 hours later as described in Table 4.
as §1, with “alone.” for “alone. Food restricted mice received approximately 60% of food of Ad libitum fed for two weeks.”

[3] = test system: spontaneous breast cancer in C3H mice; conditions: long-term treatment; cited from earlier work

## C[C@]12CC[C@H](O)CC1=CC[C@@H]1[C@@H]2CC[C@]2(C)C(=O)CC[C@@H]12 [DHEA, 3β-Hydroxy-5-androst-en-17-one, reference compound]
[1]; 400 ug topical one hour before DMBA, ad libitum fed, Table 4
  SPECIFIC ACTIVITY ([3H]DMBA bound to skin DNA): 66 ± 13 cpm/ug DNA
[1]; topical, A/J mouse
  rate of binding of topically applied 3H-DMBA to skin DNA (in words): inhibits the rate of binding of topically applied ^3 H-DMBA to A/J mouse skin DNA
[2]; 400 mg/kg p.o., 12 hours
  SPECIFIC ACTIVITY ([3H]DMBA bound to skin DNA): 73.1 ± 16.5 cpm/ug DNA and 92 ± 17.6 cpm/ug DNA
[2]; oral, single administration
  3H-DMBA binding to skin DNA (in words): does not inhibit ^3 H-DMBA binding to skin DNA; also recorded: inactive
[3]
  spontaneous breast cancer development (in words): markedly inhibits spontaneous breast cancer development
  weight gain (in words): reducing weight gain without suppressing appetite
